Data on three molecules can be found in patent publication US20080269188A1, “Oatp-C Gene C463a Polymorphism Underlies Variable Response to Statin Therapy” (INSERM, priority 2005, published 2008).

The conditions of test [1]: taken from Buse J., Clinical Diabetes 2003; cited from earlier work.
Test [2] is described as follows: FAME study: plasma lipid response to Fluvastatin XL 80 mg in elderly patients with primary hypercholesterolemia, overall and by OATP-C C463A (Pro155Thr) genotype. Type of test: in vivo, human. The procedure: The characteristics of the study subjects have been previously reported.^26 Patients were enrolled in a large scale, randomized, double-blind, placebo-controlled multicenter study conducted in France, Italy, Spain, Belgium and Israel. Initially, the aim of this study was to investigate the efficacy and safety of extended-release (XL) Fluvastatin 80 mg once daily for up to one year in elderly patients with primary hypercholesterolemia. The study was approved by the relevant Ethic Committees, and informed consent Was given by all subjects before entering the study. Men or women, aged 70-85 years, with primary hypercholesterolemia (total cholesterol ≧251 mg/dL, triglycerides ≦407 mg/dL and LDL cholesterol ≧159 mg/dL after dietary intervention) were eligible for inclusion. […] OATP-C genotypes were determined in 420 subjects from the Fluvastatin arm of the study.
For each subject, plasma lipid response was calculated based on values obtained at baseline (week—2) and 2 months after treatment. Laboratory methods for lipid and lipoprotein measurements are described elsewhere 26; all parameters were measured at a central laboratory. […] Endpoint fluorescence (FAM™, VIC® or both), corresponding to cleavage of the allele-specific probe (allelic discrimination) was measured using an ABI PRISM 7000 Sequence Detection System (Applied Biosystems, Foster City, Calif.). […]

Test [3] is described as follows: ALERT trial (renal transplantation): lipid parameters after 6 weeks of fluvastatin by OATP-C Pro155Thr genotype. The class given is in vivo, human. Set-up: TC_Visit 2 / TC_Diff / TG_Visit 2 / TG_Diff / HDL_Visit 2 / HDL_Diff / LDL_Visit 2 / LDL_Diff: unit not given here. To be noted: LSMEAN; for HDL_% change / LDL_% change / TC_% change / TG_% change: 6 weeks; for HDL_Visit 2 / LDL_Visit 2 / TC_Visit 2 / TG_Visit 2: visit 2 (6 weeks of treatment), 40 mg daily; for HDL_Diff / LDL_Diff / TC_Diff / TG_Diff: week 6 minus visit zero. The procedure: Given the success of statins, and fluvastatin in particular, in lowering lipid levels and reducing cardiovascular disease in the general population, the Assessment of LEscol (Fluvastatin) in Renal Transplantation (ALERT) clinical trial was performed (Holdaas et al., 2003). This multicenter, randomized, double-blind placebo-controlled study followed […] renal transplant patients for 5-6 years. Patients were assigned to a placebo or fluvastatin (40 mg daily for two years, and 80 mg daily for the remainder of the study) group, and monitored in laboratory blood analysis every six months and annual electrocardiography.
The Alert trial was conducted in centres in the Scandinavian countries, UK, Germany, Belgium, Switzerland and Canada, with only minimal number of non-Caucasian patients. The demographic and baseline LDL-C characteristics are similar between the fluvastatin treatment and the placebo groups, as illustrated in Table 5.
Blood samples from each consenting patient were collected at the individual trial sites. The genomic DNA of each patient was extracted from the blood using the […]™ DNA Isolation Kit (D-50K) and then genotyping was performed. Ultimately, 1375 ALERT samples were genotyped: 693 from the Fluvastatin group (of 1050 total patients) and 682 from the placebo group (of 1052 total patients).
The primary efficacy variables tested were: LDL cholesterol at visit 2 (6 weeks of treatment) and Change in LDL cholesterol. The change in LDL cholesterol was calculated as the difference between the week 6 value and the visit zero value, for patients for whom both numbers were available. Additional efficacy variables tested in the full set of genotypes were: • HDL cholesterol at visit 2 (6 Weeks of treatment) • Change in HDL cholesterol • Total cholesterol at visit 2 (6 weeks of treatment) • Change in total cholesterol • Triglycerides at visit 2 (6 weeks of treatment) • Change in triglycerides.
Association tests used categorical genotypes as the independent variable, with no assumption about dominance, and the various efficacy variables as dependent variables. Tests of continuous dependent variables used an ANCOVA analysis. No adjustment was made for multiple testing effect.
The relevant association test for each phenotype was first performed in the Fluvastatin treated patient set. SNP-phenotype associations with a threshold of p<0.05 were then tested separately in the placebo set to determine Fluvastatin-related pharmacogenetic effect.

Marks after values point to notes of the source that are not given here.

In the case of `CC(C)c1c(C(=O)Nc2ccccc2)c(-c2ccccc2)c(-c2ccc(F)cc2)n1CC[C@@H](O)C[C@@H](O)CC(=O)O` [Atorvastatin, atorvastatin], the Equipotent dose in test [1] is 10 mg.
As to `CC(C)n1c(/C=C/C(O)CC(O)CC(=O)O)c(-c2ccc(F)cc2)c2ccccc21` (stereo not shown) [Fluvastatin, fluvastatin], in test [2] (C463A genotype AA (Thr/Thr), n=15, baseline vs 2 months, mean ± SD), the “LDL-C, % Change” value was −41%. Further, the “absolute gain in LDL-C reduction” value in test [2] (homozygous Thr/Thr vs homozygous wild-type Pro/Pro) worked out at 10%. Also, in test [3] (Pro155Thr genotype AA, n=16), the HDL_% change was found to be 18%, the LDL_% change was −34%, the TC_% change was −20% and the TG_% change stood at 8%. Besides, in test [3] (Pro155Thr genotype AA, n=16), the “HDL_Visit 2” value stood at 1.58, the “LDL_Visit 2” value is reported as 2.68, the “TC_Visit 2” value is on record as 5.17 and the “TG_Visit 2” value is listed as 2.12. Besides, in test [3] (Pro155Thr genotype AA, n=16), the HDL_Diff was 0.23, the LDL_Diff is given as −1.45, the TC_Diff was −1.27 and the TG_Diff is recorded as −0.037. Further, in test [3] (Pro155Thr genotype AC, n=167), the HDL_% change is 8%, the LDL_% change is on record as −23%, the TC_% change is −16% and the TG_% change is reported as −3%. In test [3] (Pro155Thr genotype AC, n=167), the “HDL_Visit 2” value was 1.4, the “LDL_Visit 2” value was found to be 3.12, the “TC_Visit 2” value is recorded as 5.39 and the “TG_Visit 2” value is recorded as 1.98. In test [3] (Pro155Thr genotype AC, n=167), this molecule registered an HDL_Diff of 0.05, an LDL_Diff of −1.02, a TC_Diff of −1.05 and a TG_Diff of −0.181. Also, in test [3] (Pro155Thr genotype CC, n=468), the HDL_% change stood at 9%, the LDL_% change is −28%, the TC_% change is listed as −18% and the TG_% change is −5%. Besides, in test [3] (Pro155Thr genotype CC, n=468), the “HDL_Visit 2” value is recorded as 1.43, the “LDL_Visit 2” value is reported as 2.91, the “TC_Visit 2” value is 5.21 and the HDL_Diff was 0.08. Further, in test [3] (Pro155Thr genotype CC, n=468), the LDL_Diff was −1.22, the TC_Diff is given as −1.23 and the TG_Diff is given as −0.226. Also, in test [1], the Equipotent dose is 80* mg.
In the case of `CC[C@H](C)C(=O)O[C@H]1C[C@@H](C)C=C2C=C[C@H](C)[C@H](CC[C@@H]3C[C@@H](O)CC(=O)O3)[C@H]21` [Lovastatin, lovastatin], the Equipotent dose in test [1] is given as 60* mg.
